Tests used:
[1] = molecular target: soluble human BACE1 catalytic domain (Homo sapiens (Human), UniProt P56817); experiment: BACE1 HTRF FRET Assay; type: biochemical; settings: Ki calculated from IC50 using the Cheng-Prusoff equation; QSY7-APPswe-Eu substrate, pH 5.0; read-out: BACE-1 Ki
Source text: • Reagents: Na^+-Acetate pH 5.0; 1% Brij-35; Glycerol; Dimethyl Sulfoxide (DMSO); Recombinant human soluble BACE1 catalytic domain (>95% pure); APP Swedish mutant peptide substrate (QSY7-APP^swe-Eu): QSY7-EISEVNLDAEFC-Europium-amide.
A homogeneous time-resolved FRET assay can be used to determine IC50 values for inhibitors of the soluble human BACE1 catalytic domain. This assay monitors the increase of 620 nm fluorescence that resulted from BACE1 cleavage of an APPswedish APP^swe mutant peptide FRET substrate (QSY7-EISEVNLDAEFC-Europium-amide). This substrate contains an N-terminal QSY7 moiety that serves as a quencher of the C-terminal Europium fluorophore (620 nm Em). In the absence of enzyme activity, 620 nm fluorescence is low in the assay and increased linearly over 3 hours in the presence of uninhibited BACE1 enzyme. Inhibition of BACE1 cleavage of the QSY7-APP^swe-Eu substrate by inhibitors is manifested as a suppression of 620 nm fluorescence.
Varying concentrations of inhibitors at 3× the final desired concentration in a volume of 10 ul are preincubated with purified human BACE1 catalytic domain (3 nM in 10 μl) for 30 minutes at 30° C. in reaction buffer containing 20 mM Na-Acetate pH 5.0, 10% glycerol, 0.1% Brij-35 and 7.5% DSMO. Reactions are initiated by addition of 10 μl of 600 nM QSY7-APP^swe-Eu substrate (200 nM final) to give a final reaction volume of 30 μl in a 384 well Nunc HTRF plate. The reactions are incubated at 30° C. for 1.5 hours. The 620 nm fluorescence is then read on a Rubystar HTRF plate reader (BMG Labtechnologies) using a 50 millisecond delay followed by a 400 millisecond acquisition time window. Inhibitor IC50 values are derived from non-linear regression analysis of concentration response curves. Ki values are then calculated from IC50 values using the Cheng-Prusoff equation using a previously determined m value of […] for the QSY7-APP^swe-Eu substrate at BACE1.

[2] = molecular target: purified human autoBACE-2 (Homo sapiens (Human), UniProt Q9Y5Z0); experiment: BACE-2 Assay (BACE-HTRF assay); type: biochemical; settings: Ki calculated from IC50 using the Cheng-Prusoff equation; QSY7-EISEVNLDAEFC-Eu-amide substrate, pH 5.0
Method: Inhibitor IC50s at purified human autoBACE-2 are determined in a time-resolved endpoint proteolysis assay that measures hydrolysis of the QSY7-EISEVNLDAEFC-Eu-amide FRET peptide substrate (BACE-HTRF assay). BACE-mediated hydrolysis of this peptide results in an increase in relative fluorescence (RFU) at 620 nm after excitation with 320 nm light. Inhibitor compounds, prepared at 3× the desired final concentration in 1×BACE assay buffer (20 mM sodium acetate pH 5.0, 10% glycerol, 0.1% Brij-35) supplemented with 7.5% DMSO are preincubated with an equal volume of autoBACE-2 enzyme diluted in 1×BACE assay buffer (final enzyme concentration 1 nM) in black 384-well NUNC plates for 30 minutes at 30° C. […] DMSO is present at 5% final concentration in the assay. Following laser excitation of sample wells at 320 nm, the fluorescence signal at 620 nm is collected for 400 ms following a […] on a RUBYstar HTRF plate reader (BMG Labtechnologies). Raw RFU data is normalized to maximum (1.0 nM BACE/DMSO) and minimum (no enzyme/DMSO) RFU values. IC50s are determined by nonlinear regression analysis (sigmoidal dose response, variable slope) of percent inhibition data with minimum and maximum values set to 0 and 100 percent respectively. Similar IC50s are obtained when using raw RFU data. The Ki values are calculated from the IC50 using the Cheng-Prusoff equation.

Chain of purified human autoBACE-2 (Q9Y5Z0 63-473): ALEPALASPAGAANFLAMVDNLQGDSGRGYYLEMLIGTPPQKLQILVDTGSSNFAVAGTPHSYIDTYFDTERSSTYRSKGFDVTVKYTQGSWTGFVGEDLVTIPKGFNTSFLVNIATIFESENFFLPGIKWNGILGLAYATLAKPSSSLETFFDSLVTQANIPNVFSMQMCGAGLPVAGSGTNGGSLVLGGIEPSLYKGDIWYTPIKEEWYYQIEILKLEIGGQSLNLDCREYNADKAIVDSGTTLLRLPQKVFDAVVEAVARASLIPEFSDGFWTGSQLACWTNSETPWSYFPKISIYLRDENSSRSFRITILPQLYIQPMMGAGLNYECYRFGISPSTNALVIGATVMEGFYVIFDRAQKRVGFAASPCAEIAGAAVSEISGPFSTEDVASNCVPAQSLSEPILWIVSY
Chain of soluble human BACE1 catalytic domain (P56817 75-416): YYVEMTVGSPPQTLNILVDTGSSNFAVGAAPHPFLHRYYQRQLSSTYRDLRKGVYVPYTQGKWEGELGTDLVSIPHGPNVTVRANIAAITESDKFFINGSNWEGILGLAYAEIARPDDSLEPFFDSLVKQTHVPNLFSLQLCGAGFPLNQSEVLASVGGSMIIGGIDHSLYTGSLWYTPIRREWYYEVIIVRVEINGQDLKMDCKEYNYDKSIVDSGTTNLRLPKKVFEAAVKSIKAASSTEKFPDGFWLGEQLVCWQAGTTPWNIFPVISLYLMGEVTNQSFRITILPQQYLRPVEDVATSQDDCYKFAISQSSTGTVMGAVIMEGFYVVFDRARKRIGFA

| Ki [1] | Ki [2] | Structure (SMILES) |
| --- | --- | --- |
| 3.4 nM | 1.6 nM | C[C@H]1C[C@@H]2[C@](c3cc(Oc4ncccc4F)ccc3F)(CO1)NC(=N)N(C)S2(=O)=O [Example 1, (4aS,7S,8aR)-4a-(2-fluoro-5-((3-fluoropyridin-2-yl)oxy)phenyl)-3-imino-2,7-dimethyloctahydropyrano[3,4-e][1,2,4]thiadiazine 1,1-dioxide] |
| 2.7 nM | 2.3 nM | C[C@H]1C[C@@H]2[C@](c3cc(Oc4cc(C#N)ccn4)ccc3F)(CO1)NC(=N)N(C)S2(=O)=O [Example 3, 2-(4-fluoro-3-((4aS,7S,8aR)-3-imino-2,7-dimethyl-1,1-dioxidooctahydropyrano[3,4-e][1,2,4]thiadiazin-4a-yl)phenoxy)isonicotinonitrile] |
| 12 nM | 5.9 nM | C[C@H]1C[C@@H]2[C@](c3cc(Oc4ncncc4F)ccc3F)(CO1)NC(=N)N(C)S2(=O)=O [Example 4, (4aS,7S,8aR)-4a-(2-fluoro-5-((5-fluoropyrimidin-4-yl)oxy)phenyl)-3-imino-2,7-dimethyloctahydropyrano[3,4-e][1,2,4]thiadiazine 1,1-dioxide] |
| 25 nM | 13 nM | C[C@H]1C[C@@H]2[C@](c3cc(Oc4ncc(F)cc4F)ccc3F)(CO1)NC(=N)N(C)S2(=O)=O [Example 5, (4aS,7S,8aR)-4a-(5-((3,5-difluoropyridin-2-yl)oxy)-2-fluorophenyl)-3-imino-2,7-dimethyloctahydropyrano[3,4-e][1,2,4]thiadiazine 1,1-dioxide] |
| 7.1 nM | 15 nM | C[C@H]1C[C@@H]2[C@](c3cc(Oc4cc(F)cnc4F)ccc3F)(CO1)NC(=N)N(C)S2(=O)=O [Example 6, (4aS,7S,8aR)-4a-(5-((2,5-difluoropyridin-3-yl)oxy)-2-fluorophenyl)-3-imino-2,7-dimethyloctahydropyrano[3,4-e][1,2,4]thiadiazine 1,1-dioxide] |
| 28 nM | 4.3 nM | C[C@H]1C[C@@H]2[C@](c3cc(OCC4CC4)ccc3F)(CO1)NC(=N)N(C)S2(=O)=O [Example 7, (4aS,7S,8aR)-4a-(5-(cyclopropylmethoxy)-2-fluorophenyl)-3-imino-2,7-dimethyloctahydropyrano[3,4-e][1,2,4]thiadiazine 1,1-dioxide] |
| 9.1 nM | 28 nM | C[C@H]1C[C@@H]2[C@](c3cc(OCC45CC(C#N)(C4)C5)ccc3F)(CO1)NC(=N)N(C)S2(=O)=O [Example 8, 3-((4-fluoro-3-((4aS,7S,8aR)-3-imino-2,7-dimethyl-1,1-dioxidooctahydropyrano[3,4-e][1,2,4]thiadiazin-4a-yl)phenoxy)methyl)bicyclo[1.1.1]pentane-1-carbonitrile] |
| 4.6 nM | 9.4 nM | COC[C@H]1C[C@@H]2[C@](c3cc(Oc4cncc(OC)n4)ccc3F)(CO1)NC(=N)N(C)S2(=O)=O [Example 9, (4aS,7R,8aR)-4a-(2-fluoro-5-((6-methoxypyrazin-2-yl)oxy)phenyl)-3-imino-7-(methoxymethyl)-2-methyloctahydropyrano[3,4-e][1,2,4]thiadiazine 1,1-dioxide] |
| 1.9 nM | 3.4 nM | COC[C@H]1C[C@@H]2[C@](c3cc(Oc4cc(C#N)ccn4)ccc3F)(CO1)NC(=N)N(C)S2(=O)=O [Example 10, 2-(4-fluoro-3-((4aS,7R,8aR)-3-imino-7-(methoxymethyl)-2-methyl-1,1-dioxidooctahydropyrano[3,4-e][1,2,4]thiadiazin-4a-yl)phenoxy)isonicotinonitrile] |
| 5.9 nM | 4.5 nM | COC[C@H]1C[C@@H]2[C@](c3cc(Oc4ncncc4F)ccc3F)(CO1)NC(=N)N(C)S2(=O)=O [Example 11, (4aS,7R,8aR)-4a-(2-fluoro-5-((5-fluoropyrimidin-4-yl)oxy)phenyl)-3-imino-7-(methoxymethyl)-2-methyloctahydropyrano[3,4-e][1,2,4]thiadiazine 1,1-dioxide] |
| 20 nM | 18 nM | COC[C@H]1C[C@@H]2[C@](c3cc(Oc4ncc(F)cc4F)ccc3F)(CO1)NC(=N)N(C)S2(=O)=O [Example 12, (4aS,7R,8aR)-4a-(5-((3,5-difluoropyridin-2-yl)oxy)-2-fluorophenyl)-3-imino-7-(methoxymethyl)-2-methyloctahydropyrano[3,4-e][1,2,4]thiadiazine 1,1-dioxide] |
| 2.1 nM | 10 nM | COC[C@H]1C[C@@H]2[C@](c3cc(Oc4cc(F)cnc4F)ccc3F)(CO1)NC(=N)N(C)S2(=O)=O [Example 13, (4aS,7R,8aR)-4a-(5-((2,5-difluoropyridin-3-yl)oxy)-2-fluorophenyl)-3-imino-7-(methoxymethyl)-2-methyloctahydropyrano[3,4-e][1,2,4]thiadiazine 1,1-dioxide] |
| 7.9 nM | 2 nM | COC[C@H]1C[C@@H]2[C@](c3cc(OCC4CC4)ccc3F)(CO1)NC(=N)N(C)S2(=O)=O [Example 14, (4aS,7R,8aR)-4a-(5-(cyclopropylmethoxy)-2-fluorophenyl)-3-imino-7-(methoxymethyl)-2-methyloctahydropyrano[3,4-e][1,2,4]thiadiazine 1,1-dioxide] |
| 9.1 nM | 28 nM | COC[C@H]1C[C@@H]2[C@](c3cc(OCC45CC(C#N)(C4)C5)ccc3F)(CO1)NC(=N)N(C)S2(=O)=O [Example 15, 3-((4-fluoro-3-((4aS,7R,8aR)-3-imino-7-(methoxymethyl)-2-methyl-1,1-dioxidooctahydropyrano[3,4-e][1,2,4]thiadiazin-4a-yl)phenoxy)methyl)bicyclo[1.1.1]pentane-1-carbonitrile] |
| 39 nM | 52 nM | COC[C@H]1C[C@@H]2[C@](c3cc(Oc4cccnc4)ccc3F)(CO1)NC(=N)N(C)S2(=O)=O [Example 16, (4aS,7R,8aR)-4a-(2-fluoro-5-(pyridin-3-yloxy)phenyl)-3-imino-7-(methoxymethyl)-2-methyloctahydropyrano[3,4-e][1,2,4]thiadiazine 1,1-dioxide] |
| 4.3 nM | 6.9 nM | COC[C@H]1C[C@@H]2[C@](c3cc(Oc4cccc(C#N)c4)ccc3F)(CO1)NC(=N)N(C)S2(=O)=O [Example 17, 3-(4-fluoro-3-((4aS,7R,8aR)-3-imino-7-(methoxymethyl)-2-methyl-1,1-dioxidooctahydropyrano[3,4-e][1,2,4]thiadiazin-4a-yl)phenoxy)benzonitrile] |
| 203 nM | 89 nM | COC[C@H]1C[C@@H]2[C@](c3cc(Oc4cnccc4Cl)ccc3F)(CO1)NC(=N)N(C)S2(=O)=O [Example 19, (4aS,7R,8aR)-4a-(5-((4-chloropyridin-3-yl)oxy)-2-fluorophenyl)-3-imino-7-(methoxymethyl)-2-methyloctahydropyrano[3,4-e][1,2,4]thiadiazine 1,1-dioxide] |

Reference: patent US10604534B2, “C5-C6-oxacyclic fused iminothiadiazine dioxide compounds bearing an ether linker as BACE inhibitors, compositions, and their use” (Merck Sharp & Dohme Corp., priority 2016, dated 2020)
